Assay results published in ChEMBL document CHEMBL3994622, “Design and synthesis of new RAF kinase-inhibiting antiproliferative quinoline derivatives. Part 2: Diarylurea derivatives” (Eur J Med Chem, 2017).

How the values were obtained:
Type in all cases: functional
CCRF-CEM = assay: Growth inhibition of human CCRF-CEM cells incubated for 48 hrs by sulforhodamine B assay; conditions: for CC50: read-out: LC50 (the source's name)
Malme-3M = assay: Growth inhibition of human MALME-3M cells incubated for 48 hrs by sulforhodamine B assay; conditions: for CC50: read-out: LC50 (the source's name)
NCI-H522 = assay: Growth inhibition of human NCI-H522 cells assessed as cell growth at 10 uM incubated for 48 hrs by sulforhodamine B assay relative to control; conditions: NCI-H522, 48 h, read-out: Activity
HCC 2998 = assay: Growth inhibition of human HCC2998 cells incubated for 48 hrs by sulforhodamine B assay; conditions: HCC 2998, 48 h; for CC50: read-out: LC50 (the source's name)
M14 = assay: Growth inhibition of human M14 cells incubated for 48 hrs by sulforhodamine B assay; conditions: M14, 48 h; for CC50: read-out: LC50 (the source's name)
OVCAR-8 = assay: Growth inhibition of human OVCAR8 cells incubated for 48 hrs by sulforhodamine B assay; conditions: OVCAR-8, 48 h; for CC50: read-out: LC50 (the source's name)
OVCAR-3 = assay: Growth inhibition of human OVCAR3 cells incubated for 48 hrs by sulforhodamine B assay; conditions: OVCAR-3, 48 h; for CC50: read-out: LC50 (the source's name)
TK-10 = assay: Growth inhibition of human TK10 cells incubated for 48 hrs by sulforhodamine B assay; conditions: TK-10, 48 h; for CC50: read-out: LC50 (the source's name)
HL-60(TB) = assay: Growth inhibition of human HL-60(TB) cells incubated for 48 hrs by sulforhodamine B assay; conditions: HL-60, 48 h; for CC50: read-out: LC50 (the source's name)
OVCAR-5 = assay: Growth inhibition of human OVCAR5 cells incubated for 48 hrs by sulforhodamine B assay; conditions: OVCAR-5, 48 h; for CC50: read-out: LC50 (the source's name)
COLO 205 = assay: Growth inhibition of human COLO205 cells incubated for 48 hrs by sulforhodamine B assay; conditions: COLO 205, 48 h; for CC50: read-out: LC50 (the source's name)
SW-620 = assay: Growth inhibition of human SW620 cells incubated for 48 hrs by sulforhodamine B assay; conditions: SW-620, 48 h
K562 [1] = assay: Growth inhibition of human K562 cells incubated for 48 hrs by sulforhodamine B assay; conditions: K562, 48 h
RPMI-8226 = assay: Growth inhibition of human RPMI8226 cells assessed as cell growth at 100 uM incubated for 48 hrs by sulforhodamine B assay relative to control; conditions: RPMI-8226, 48 h, read-out: Activity
UO-31 = assay: Growth inhibition of human UO31 cells incubated for 48 hrs by sulforhodamine B assay; conditions: UO-31, 48 h; for CC50: read-out: LC50 (the source's name)
SF-539 = assay: Growth inhibition of human SF539 cells incubated for 48 hrs by sulforhodamine B assay; conditions: SF-539, 48 h; for CC50: read-out: LC50 (the source's name)
SNB-75 = assay: Growth inhibition of human SNB75 cells incubated for 48 hrs by sulforhodamine B assay; conditions: SNB-75, 48 h; for CC50: read-out: LC50 (the source's name)
MOLT-4 = assay: Growth inhibition of human MOLT4 cells incubated for 48 hrs by sulforhodamine B assay; conditions: MOLT-4, 48 h
NCI-H226 = assay: Growth inhibition of human NCI-H226 cells assessed as cell growth at 100 uM incubated for 48 hrs by sulforhodamine B assay relative to control; conditions: NCI-H226, 48 h, read-out: Activity
HCT-116 = assay: Growth inhibition of human HCT116 cells incubated for 48 hrs by sulforhodamine B assay; conditions: HCT-116, 48 h
LOX IMVI = assay: Growth inhibition of human LOXIMVI cells incubated for 48 hrs by sulforhodamine B assay; conditions: for CC50: read-out: LC50 (the source's name)
HOP-92 = assay: Growth inhibition of human HOP92 cells assessed as cell growth at 0.1 uM incubated for 48 hrs by sulforhodamine B assay relative to control; conditions: HOP-92, 48 h, read-out: Activity
K562 [2] = assay: Growth inhibition of human K562 cells assessed as cell growth at 0.01 uM incubated for 48 hrs by sulforhodamine B assay relative to control; conditions: K562, 48 h, read-out: Activity
PC-3 = assay: Growth inhibition of human PC3 cells incubated for 48 hrs by sulforhodamine B assay; conditions: PC-3, 48 h; for CC50: read-out: LC50 (the source's name)
A549 = assay: Growth inhibition of human A549/ATCC cells incubated for 48 hrs by sulforhodamine B assay; conditions: A549, 48 h; for CC50: read-out: LC50 (the source's name)
SK-MEL-2 = assay: Growth inhibition of human SK-MEL-2 cells incubated for 48 hrs by sulforhodamine B assay; conditions: SK-MEL-2, 48 h; for CC50: read-out: LC50 (the source's name)
KM12 = assay: Growth inhibition of human KM12 cells assessed as cell growth at 0.1 uM incubated for 48 hrs by sulforhodamine B assay relative to control; conditions: KM12, 48 h, read-out: Activity

For `COc1cc2cc(Oc3ccc(NC(=O)Nc4ccc(Cl)c(Cl)c4)cc3)c(C)nc2cc1OC`, the GI50 (CCRF-CEM) was 2.38 µM, the TGI (CCRF-CEM) was 14 µM and the CC50 (CCRF-CEM) was over 100 µM. The GI50 (Malme-3M) was 3.02 µM, the TGI (Malme-3M) was 7.72 µM and the CC50 (Malme-3M) was 26.7 µM. For the same compound, the growth at 10 µM (NCI-H522) was -5%, the GI50 (HCC 2998) was 5.54 µM and the TGI (HCC 2998) was over 100 µM. For the same compound, the CC50 (HCC 2998) was over 100 µM, the GI50 (M14) was 2.56 µM and the TGI (M14) was 10.5 µM. The CC50 (M14) was 34.7 µM, the GI50 (OVCAR-8) was 3.54 µM and the TGI (OVCAR-8) was 12.9 µM. It also gave a CC50 (OVCAR-8) of 36 µM, a GI50 (OVCAR-3) of 2.34 µM and a TGI (OVCAR-3) of 6.19 µM. For the same compound, the CC50 (OVCAR-3) was 22.2 µM, the GI50 (TK-10) was 3.46 µM and the TGI (TK-10) was 9.18 µM. It also gave a CC50 (TK-10) of 43.3 µM, a GI50 (HL-60(TB)) of 2.76 µM and a TGI (HL-60(TB)) of 6.75 µM. For the same compound, the CC50 (HL-60(TB)) was over 100 µM, the GI50 (OVCAR-5) was 10.1 µM and the TGI (OVCAR-5) was 34.3 µM. For the same compound, the CC50 (OVCAR-5) was over 100 µM, the GI50 (COLO 205) was 2.75 µM and the TGI (COLO 205) was 6.5 µM. The CC50 (COLO 205) was 21.5 µM, the GI50 (SW-620) was 4.24 µM and the LC50 (SW-620) was 60.9 µM. The TGI (SW-620) was 15.6 µM, the GI50 (K562 [1]) was 3.32 µM and the LC50 (concentration killing 50% of cells) (K562 [1]) was over 100 µM. For the same compound, the TGI (K562 [1]) was over 100 µM, the growth at 100 µM (RPMI-8226) was -47% and the GI50 (UO-31) was 3.44 µM. For the same compound, the TGI (UO-31) was 12.6 µM, the CC50 (UO-31) was 79.6 µM and the GI50 (SF-539) was 5.18 µM. It also gave a TGI (SF-539) of 22.3 µM, a CC50 (SF-539) of 88.8 µM and a GI50 (SNB-75) of 2.33 µM. For the same compound, the TGI (SNB-75) was 8.28 µM, the CC50 (SNB-75) was 66.1 µM and the GI50 (MOLT-4) was 3.02 µM. It also gave an LC50 (MOLT-4) of over 100 µM, a TGI (MOLT-4) of 22.8 µM and a growth at 100 µM (NCI-H226) of -85%. The GI50 (HCT-116) was 2.26 µM, the LC50 (50% lethal concentration) (HCT-116) was 32.6 µM and the TGI (HCT-116) was 10.5 µM. The GI50 (LOX IMVI) was 3.45 µM, the TGI (LOX IMVI) was 14.6 µM and the CC50 (LOX IMVI) was 38.2 µM. It also gave a growth at 0.1 µM (HOP-92) of 92%, a growth at 0.01 µM (K562 [2]) of 108% and a GI50 (PC-3) of 1.53 µM. It also gave a TGI (PC-3) of 5.13 µM, a CC50 (PC-3) of 21.3 µM and a GI50 (A549) of 1.64 µM. It also gave a TGI (A549) of 7.61 µM, a CC50 (A549) of 28.3 µM and a GI50 (SK-MEL-2) of 3 µM. The TGI (SK-MEL-2) was 6.55 µM, the CC50 (SK-MEL-2) was 20.6 µM and the growth at 0.1 µM (KM12) was 104%.

`COc1cc2cc(Oc3ccc(NC(=O)Nc4cc(C(F)(F)F)cc(C(F)(F)F)c4)cc3)c(C)nc2cc1OC` gave a GI50 (CCRF-CEM) of 0.64 µM, a TGI (CCRF-CEM) of 3.47 µM and a CC50 (CCRF-CEM) of over 100 µM. The GI50 (Malme-3M) was 1.1 µM, the TGI (Malme-3M) was 3.46 µM and the CC50 (Malme-3M) was 13.6 µM. For the same compound, the growth at 10 µM (NCI-H522) was -71%, the GI50 (HCC 2998) was 1.53 µM and the TGI (HCC 2998) was 3.15 µM. It also gave a CC50 (HCC 2998) of 6.49 µM, a GI50 (M14) of 1 µM and a TGI (M14) of 2.88 µM. It also gave a CC50 (M14) of 8.25 µM, a GI50 (OVCAR-8) of 1.63 µM and a TGI (OVCAR-8) of 4.22 µM. The CC50 (OVCAR-8) was over 100 µM, the GI50 (OVCAR-3) was 0.488 to 0.49 µM and the TGI (OVCAR-3) was 1.7 µM. The CC50 (OVCAR-3) was 4.52 µM, the GI50 (TK-10) was 2.32 µM and the TGI (TK-10) was 9.18 µM. The CC50 (TK-10) was 5.99 µM, the GI50 (HL-60(TB)) was 1.58 µM and the TGI (HL-60(TB)) was 4.37 µM. For the same compound, the CC50 (HL-60(TB)) was 41.8 µM, the GI50 (OVCAR-5) was 1.93 µM and the TGI (OVCAR-5) was 4.14 µM. The CC50 (OVCAR-5) was 8.88 µM, the GI50 (COLO 205) was 1.79 µM and the TGI (COLO 205) was 3.58 µM. It also gave a CC50 (COLO 205) of 7.18 µM, a GI50 (SW-620) of 1.94 µM and an LC50 (SW-620) of 39.3 µM. For the same compound, the TGI (SW-620) was 5.71 µM, the GI50 (K562 [1]) was 0.57 µM and the LC50 (concentration killing 50% of cells) (K562 [1]) was 17 µM. For the same compound, the TGI (K562 [1]) was 2.53 µM, the growth at 100 µM (RPMI-8226) was -34% and the GI50 (UO-31) was 0.266 to 0.27 µM. It also gave a TGI (UO-31) of 1.65 µM, a CC50 (UO-31) of 35.1 µM and a GI50 (SF-539) of 1.45 µM. The TGI (SF-539) was 3.21 µM, the CC50 (SF-539) was 7.11 µM and the GI50 (SNB-75) was 1.73 µM. It also gave a TGI (SNB-75) of 5.05 µM, a CC50 (SNB-75) of over 100 µM and a GI50 (MOLT-4) of 1.13 µM. The LC50 (MOLT-4) was over 100 µM, the TGI (MOLT-4) was 4.04 µM and the growth at 100 µM (NCI-H226) was -52%. For the same compound, the GI50 (HCT-116) was 0.589 to 0.59 µM, the LC50 (50% lethal concentration) (HCT-116) was 5.16 µM and the TGI (HCT-116) was 1.92 µM. It also gave a GI50 (LOX IMVI) of 1.44 µM, a TGI (LOX IMVI) of 2.96 µM and a CC50 (LOX IMVI) of 6.12 µM. It also gave a growth at 0.1 µM (HOP-92) of 90%, a growth at 0.01 µM (K562 [2]) of 110% and a GI50 (PC-3) of 0.42 µM. It also gave a TGI (PC-3) of 2.48 µM, a CC50 (PC-3) of 32.4 µM and a GI50 (A549) of 1.42 µM. For the same compound, the TGI (A549) was 4.75 µM, the CC50 (A549) was 22.5 µM and the GI50 (SK-MEL-2) was 1.82 µM. For the same compound, the TGI (SK-MEL-2) was 4.24 µM, the CC50 (SK-MEL-2) was 9.88 µM and the growth at 0.1 µM (KM12) was 95%.
